IC50 data for 13 molecules are collected here from patent US9856216B2, “Compounds as TNIK, IKKε and TBK1 inhibitors and pharmaceutical composition comprising same” (GREEN CROSS CORPORATION, priority 2015, dated 2018).

One assay has as its target T1, TBK1 (Homo sapiens, UniProt Q9UHD2).
T1 construct: purchased Promega V3991
T1 sequence (Q9UHD2 1-729): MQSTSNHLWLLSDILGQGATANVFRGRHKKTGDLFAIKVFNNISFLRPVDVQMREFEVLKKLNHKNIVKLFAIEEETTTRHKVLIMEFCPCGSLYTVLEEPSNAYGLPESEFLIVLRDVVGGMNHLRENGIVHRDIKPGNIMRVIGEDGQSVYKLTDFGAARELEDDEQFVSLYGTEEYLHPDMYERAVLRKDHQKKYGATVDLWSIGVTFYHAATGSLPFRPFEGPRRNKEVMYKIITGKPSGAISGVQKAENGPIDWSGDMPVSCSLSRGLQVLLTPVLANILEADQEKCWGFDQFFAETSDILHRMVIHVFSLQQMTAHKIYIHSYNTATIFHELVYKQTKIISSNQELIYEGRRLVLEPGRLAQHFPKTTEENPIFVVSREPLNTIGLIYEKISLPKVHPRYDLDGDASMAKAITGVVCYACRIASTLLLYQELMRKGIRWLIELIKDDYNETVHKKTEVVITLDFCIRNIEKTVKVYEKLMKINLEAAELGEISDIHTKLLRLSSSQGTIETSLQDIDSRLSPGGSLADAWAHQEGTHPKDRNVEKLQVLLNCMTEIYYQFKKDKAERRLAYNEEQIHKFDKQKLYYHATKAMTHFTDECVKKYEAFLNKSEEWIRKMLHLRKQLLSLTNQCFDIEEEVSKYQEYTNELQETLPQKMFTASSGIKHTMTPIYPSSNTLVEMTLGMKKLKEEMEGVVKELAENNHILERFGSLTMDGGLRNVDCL
Put plainly: ADP-Glo Kinase Assay, inhibition activity on TBK1. It counts as biochemical. How it is done: (§1) The inhibition activities on TNIK, IKKε and TBK1 were measured by a luminometer, TNIK/IKKε/TBK1 Kinase Enzyme System (Promega, Ca# V4158; Invitrogen, PR8031B, Promega, Ca# V3991) and ADP-Glo Kinase Assay using ADP-Glo™ Kinase Analysis Kit (Promega, Ca# V9101) and a kinase reaction buffer [40 mM Tris(pH 7.5), 20 mM MgCl2, 0.1 mg/mL BSA] in accordance with the manufacturer's protocol.

Another assay addresses T2, IKKε (Homo sapiens, UniProt Q14164).
T2 construct: purchased Invitrogen PR8031B
T2 sequence (Q14164 1-716): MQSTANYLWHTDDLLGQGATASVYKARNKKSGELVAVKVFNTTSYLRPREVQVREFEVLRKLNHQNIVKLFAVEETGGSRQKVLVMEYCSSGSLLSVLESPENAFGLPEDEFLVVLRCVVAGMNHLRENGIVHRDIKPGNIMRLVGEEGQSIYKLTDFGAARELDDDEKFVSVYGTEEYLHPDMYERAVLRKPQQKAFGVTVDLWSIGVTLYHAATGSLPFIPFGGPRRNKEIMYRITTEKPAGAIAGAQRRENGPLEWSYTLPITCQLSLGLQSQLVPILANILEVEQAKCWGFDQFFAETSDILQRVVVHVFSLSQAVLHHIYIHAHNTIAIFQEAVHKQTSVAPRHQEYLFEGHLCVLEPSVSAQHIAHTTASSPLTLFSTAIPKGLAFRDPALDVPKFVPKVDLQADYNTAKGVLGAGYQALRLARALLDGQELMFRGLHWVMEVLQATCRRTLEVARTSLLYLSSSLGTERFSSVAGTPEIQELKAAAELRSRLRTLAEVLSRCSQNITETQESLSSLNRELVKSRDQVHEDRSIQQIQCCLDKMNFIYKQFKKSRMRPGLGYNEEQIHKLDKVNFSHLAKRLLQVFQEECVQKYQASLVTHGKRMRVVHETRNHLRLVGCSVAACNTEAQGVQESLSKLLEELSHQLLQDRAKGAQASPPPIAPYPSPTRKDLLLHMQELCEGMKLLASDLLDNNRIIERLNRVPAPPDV
Put plainly: ADP-Glo Kinase Assay, inhibition activity on IKKε. It counts as biochemical. How it is done:
as §1

With `Cc1cccc(Nc2nccc(-c3ccc(N)c4c3CNC4=O)n2)c1` [Example 84, 7-Amino-4-(2-(m-tolylamino)pyrimidin-4-yl)isoindolin-1-one], the half-inhibitory concentration (IC50) is 0.2 µM at TBK1 and 0.44 µM on IKKε.

As to `CC(=O)Nc1ccc(-c2cnc3[nH]cc(-c4ccc(N)c5c4CNC5=O)c3c2)cc1` [Example 85, N-(4-(3-(7-amino-1-oxoisoindolin-4-yl)-1H-pyrrolo[2,3-b]pyridine-5-yl)phenyl)acetamide], the values for the IC50 at TBK1 and on IKKε were 0.072 µM and 0.16 µM, respectively.

For the molecule `Nc1ccc(-c2c[nH]c3ncc(-c4ccc(CN5CCOCC5)s4)cc23)c2c1C(=O)NC2` [Example 86, 7-Amino-4-(5-(5-(morpholinomethyl)thiophen-2-yl)-1H-pyrrolo[2,3-b]pyridin-3-yl)isoindolin-1-one], the half-maximal inhibitory concentration (IC50) on TBK1 came out at 0.032 µM; against IKKε, 0.056 µM.

`COc1cccc(Nc2nccc(-c3ccc(NC(C)=O)c4c3CNC4=O)n2)c1` [Example 162, N-(7-(2-((3-methoxyphenyl)amino)pyrimidin-4-yl)-3-oxoisoindolin-4-yl)acetamide]: the half-maximal inhibitory concentration (IC50) against TBK1 was 0.1 µM; against IKKε, 0.63 µM.

Take `CC(=O)Nc1ccc(-c2ccnc(Nc3cccc(F)c3)n2)c2c1C(=O)NC2` [Example 163, N-(7-(2-((3-fluorophenyl)amino)pyrimidin-4-yl)-3-oxoisoindolin-4-yl) acetamide]: the half-maximal inhibitory concentration (IC50) against TBK1 was 4 µM; against IKKε it was > 10 µM.

With `CC(=O)Nc1ccc(-c2ccnc(Nc3cccc(C)c3)n2)c2c1C(=O)NC2` [Example 164, N-(3-oxo-7-(2-(m-tolylamino)pyrimidin-4-yl)isoindolin-4-yl) acetamide], the results for the IC50 at TBK1 and against IKKε were 0.35 µM and 0.83 µM, respectively.

Take `CC(=O)Nc1ccc(-c2ccnc(Nc3ccc(C)cc3)n2)c2c1C(=O)NC2` [Example 165, N-(3-oxo-7-(2-(p-tolylamino)pyrimidin-4-yl)isoindolin-4-yl) acetamide]: the half-maximal inhibitory concentration (IC50) against TBK1 and against IKKε was > 10 µM each time.

Consider `CCC(=O)Nc1ccc(-c2ccnc(Nc3cccc(OC)c3)n2)c2c1C(=O)NC2` [Example 166, N-(7-(2-((3-methoxyphenyl)amino)pyrimidin-4-yl)-3-oxoisoindolin-4-yl)propionamide], for which the figures for the concentration for half-maximal inhibition (IC50) against TBK1 and against IKKε were 0.094 µM and > 10 µM, respectively.

For the molecule `COc1cccc(Nc2nccc(-c3ccc(N(C)C)c4c3CNC4=O)n2)c1` [Example 266, 7-(Dimethylamino)-4-(2-((3-methoxyphenyl)amino)pyrimidin-4-yl)isoindolin-1-one], the values for the IC50 against TBK1 and at IKKε were 0.75 µM and 1.96 µM, respectively.

As to `CN(C)c1ccc(-c2ccnc(Nc3cccc(F)c3)n2)c2c1C(=O)NC2` [Example 267, 7-(Dimethylamino)-4-(2-((3-fluorophenyl)amino)pyrimidin-4-yl)isoindolin-1-one], the IC50 at TBK1 worked out at 3.98 µM; against IKKε, 5.51 µM.

As for `CCCCNc1ccc(-c2ccnc(Nc3cccc(OC)c3)n2)c2c1C(=O)NC2` [Example 268, 7-(Butylamino)-4-(2-((3-methoxyphenyl)amino)pyrimidin-4-yl)isoindolin-1-one], the IC50 amounted to 0.32 µM on TBK1 and 0.88 µM on IKKε.

Regarding `CCCCN(C)c1ccc(-c2ccnc(Nc3cccc(OC)c3)n2)c2c1C(=O)NC2` [Example 269, 7-(Butyl(methyl)amino)-4-(2-((3-methoxyphenyl)amino)pyrimidin-4-yl)isoindolin-1-one], the IC50 at TBK1 amounted to 2.55 µM; against IKKε it was 5.97 µM.

For the molecule `CCCCN(C)c1ccc(-c2ccnc(Nc3cccc(OC)c3)n2)c2c1C(=O)N(C)C2` [Example 270, 7-(Butyl(methyl)amino)-4-(2-((3-methoxyphenyl)amino)pyrimidin-4-yl)-2-methylisoindolin-1-one], the IC50 at TBK1 and against IKKε was > 10 µM throughout.
